Counter-ions that a name gives are not always drawn. Like-named read-outs stand apart in the source and are kept apart here.
Test system: tracheal specimens excised from guinea pigs
Assay: Inhibitory effect on KCl-induced contraction of tracheal specimens excised from guinea pigs (Magnus tube)
Type: cell-based
Conditions: dose required for relaxing KCl-induced contraction to 50 %, final KCl concentration: 20 mM, 37 °C, compounds other than acid addition salts used as hydrochloride, 3 specimens per group, read-out: ED₅₀ Effect on KCl-induced contraction
Method: The bronchial smooth muscle-relaxing action of the sulfonamide derivative of the present invention was evaluated by the effect on suppression of KCl-induced contraction and PGF2α-induced contraction of bronchial specimens excised from guinea pigs.
According to a method in which tracheal specimens excised from guinea pigs were used (Takagi and Ozawa, "Yakubutsugaku Jikken (Experiments in Pharmacology)", pp.100-102, 1960, published by Nanzando Japan; and Fujiwara and Shibata, "Yakurigaku Kiso Jikenho (Methods of Fundamental Experiments in Pharmacology)" pp.131-134, 1982, published by Kyourin, Japan), relaxing effect of sulfonamide derivatives of the present invention on bronchial smooth muscle was examined. Of compounds (1) to (69) shown herein, compounds other than acid addition salts were individually used in the form of a hydrochloride which was obtained by the same method as described in Example 61.
From male guinea pigs weighing 350 to 500 g (Hartley strain, Kuroda Junkei Dobutsu), tracheas were excised and each of the excised tracheal specimens was hung in 20 ml of a Magnus tube filled with Krebs-Henseleit solution under isotonic conditions and the solution temperature was kept at 37 °C. An aqueous KCl solution was dropwise added into the Magnus tube (final KCl concentration: 20 mM) to contract the tracheal specimen. After the KCl-induced contraction became stable, each of the compounds of the present invention was dissolved in distilled water or physiological saline, and the compound solution was cumulatively added into the Magnus tube. The relaxing effect of each of the compounds of the present invention on contracted tracheal specimens was evaluated and a dose-response curve was obtained.
A dose required for relaxing KCl-induced contraction to 50 %, i.e., ED₅₀ was calculated from the dose-response curve. For comparison, the same method as described above was repeated except that aminophylline was used, to thereby determine an ED₅₀. The number of tracheal specimens in each group was 3.

| Molecule | EC50 | EC50 (Cavia porcellus) |
| --- | --- | --- |
| 1-(1-hydroxy-5-isoquinolinesulfonylaminoethyl) homopiperazine hydrochloride [(33)] | 24 µM |  |
| 1-(1-hydroxy-5-isoquinolinesulfonylaminoethyl) piperazine hydrochloride [(32)] | 27 µM |  |
| 1-(1-hydroxy-5-isoquinolinesulfonylaminoethyl)-3-(3,4-methylenedioxybenzyl)homopiperazine hydrochloride [(35)] | 18 µM |  |
| O=S(=O)(NCCNCCc1ccc2c(c1)OCO2)c1cccc2cnccc12 [(1), N-[2-(3,4-methylenedioxyphenethylamino)ethyl]-5-isoquinolinesulfonamide] |  | 7.4 µM |
| O=S(=O)(NCCNCCc1ccc2c(c1)OCO2)c1cccc2c(O)nccc12 [(2), N-[2-(3,4-methylenedioxyphenethylamino)ethyl]-1-hydroxy-5-isoquinolinesulfonamide hydrochloride] |  | 15 µM |
| COc1ccc(CCNCCNS(=O)(=O)c2ccc(Cl)c3ncccc23)cc1 [(5), N-[2-(4-methoxyphenethylamino)ethyl]-8-chloro-5-quinolinesulfonamide] |  | 28 µM |
| O=S(=O)(NCCNCCc1ccc(Cl)cc1)c1ccc(Cl)c2ncccc12 [(6), N-[2-(4-chlorophenethylamino)ethyl]-8-chloro-5-quinolinesulfonamide] |  | 60 µM |
| O=S(=O)(NCCNCCc1ccc(C(F)(F)F)cc1)c1ccc(Cl)c2ncccc12 [(7), N-[2-(4-trifluoromethylphenethylamino)ethyl]-8-chloro-5-quinolinesulfonamide] |  | 70 µM |
| COc1ccc(CCNCCNS(=O)(=O)c2ccc(Cl)c3ncccc23)cc1OC [(8), N-[2-(3,4-dimethoxyphenethylamino)ethyl]-8-chloro-5-quinolinesulfonamide] |  | 120 µM |
| O=S(=O)(NCCNCCc1ccc2c(c1)OCO2)c1ccc(Cl)c2ncccc12 [(9), N-[2-(3,4-methylenedioxyphenethylamino)ethyl]-8-chloro-5-quinolinesulfonamide] |  | 30 µM |
| O=S(=O)(NCCNCc1cccc(Cl)c1)c1ccc(Cl)c2ncccc12 [(10), N-[2-(3-chlorobenzylamino)ethyl]-8-chloro-5-quinolinesulfonamide] |  | 120 µM |
| COc1ccc(CNCCNS(=O)(=O)c2ccc(Cl)c3ncccc23)cc1 [(11), N-[2-(4-methoxybenzylamino)ethyl]-8-chloro-5-quinolinesulfonamide] |  | 125 µM |
| COc1ccc(CNCCNS(=O)(=O)c2ccc(Cl)c3ncccc23)cc1OC [(12), N-[2-(3,4-dimethoxybenzylamino)ethyl]-8-chloro-5-quinolinesulfonamide] |  | 160 µM |
| O=S(=O)(NCCNCc1ccc2c(c1)OCO2)c1ccc(Cl)c2ncccc12 [(13), N-[2-(3,4-methylenedioxybenzylamino)ethyl]-8-chloro-5-quinolinesulfonamide] |  | 28 µM |
| O=S(=O)(NCCNCc1ccccc1)c1ccc(Cl)c2ncccc12 [(14)] |  | 97 µM |
| O=S(=O)(NCCNCCc1ccccc1)c1ccc(Cl)c2ncccc12 [(15)] |  | 110 µM |
| CCOc1ccc(S(=O)(=O)NCCNCCc2ccc(OC)cc2)c2cccnc12 [(16), N-[2-(4-methoxyphenethylamino)ethyl]-8-ethoxy-5-quinolinesulfonamide] |  | 35 µM |
| CCOc1ccc(S(=O)(=O)NCCNCCc2ccc(Cl)cc2)c2cccnc12 [(17), N-[2-(4-chlorophenethylamino)ethyl]-8-ethoxy-5-quinolinesulfonamide] |  | 71 µM |
| CCOc1ccc(S(=O)(=O)NCCNCCc2ccc(C(F)(F)F)cc2)c2cccnc12 [(18), N-[2-(4-trifluoromethylphenethylamino)ethyl]-8-ethoxy-5-quinolinesulfonamide] |  | 75 µM |
| CCOc1ccc(S(=O)(=O)NCCNCCc2ccc(OC)c(OC)c2)c2cccnc12 [(19), N-[2-(3,4-dimethoxyphenethylamino)ethyl]-8-ethoxy-5-quinolinesulfonamide] |  | 125 µM |
| CCOc1ccc(S(=O)(=O)NCCNCCc2ccc3c(c2)OCO3)c2cccnc12 [(20), N-[2-(3,4-methylenedioxyphenethylamino)ethyl]-8-ethoxy-5-quinolinesulfonamide] |  | 38 µM |
| CCOc1ccc(S(=O)(=O)NCCNCc2cccc(Cl)c2)c2cccnc12 [(21), N-[2-(3-chlorobenzylamino)ethyl]-8-ethoxy-5-quinolinesulfonamide] |  | 128 µM |

| Molecule | EC50 | EC50 (Cavia porcellus) |
| --- | --- | --- |
| CCOc1ccc(S(=O)(=O)NCCNCc2ccc(OC)cc2)c2cccnc12 [(22), N-[2-(4-methoxybenzylamino)ethyl]-8-ethoxy-5-quinolinesulfonamide] |  | 131 µM |
| CCOc1ccc(S(=O)(=O)NCCNCc2ccc(OC)c(OC)c2)c2cccnc12 [(23), N-[2-(3,4-dimethoxybenzylamino)ethyl]-8-ethoxy-5-quinolinesulfonamide] |  | 163 µM |
| CCOc1ccc(S(=O)(=O)NCCNCc2ccc3c(c2)OCO3)c2cccnc12 [(24), N-[2-(3,4-methylenedioxybenzylamino)ethyl]-8-ethoxy-5-quinolinesulfonamide] |  | 31 µM |
| CCOc1ccc(S(=O)(=O)NCCNCc2ccccc2)c2cccnc12 [(25), N-(2-benzylaminoethyl)-8-ethoxy-5-quinolinesulfonamide] |  | 105 µM |
| CCOc1ccc(S(=O)(=O)NCCNCCc2ccccc2)c2cccnc12 [(26), N-(2-phenethylaminoethyl)-8-ethoxy-5-quinolinesulfonamide] |  | 112 µM |
| O=S(=O)(NCCN1CCNCC1)c1cccc2cnccc12 [(28), 1-(5-isoquinolinesulfonylaminoethyl)piperazine] |  | 24 µM |
| O=S(=O)(NCCN1CCCNCC1)c1cccc2cnccc12 [(29), 1-(5-isoquinolinesulfonylaminoethyl)homopiperazine] |  | 22 µM |
| O=S(=O)(NCCN1CCN(Cc2ccc3c(c2)OCO3)CC1)c1cccc2c(O)nccc12 [(34), 1-(1-hydroxy-5-isoquinolinesulfonylaminoethyl)-4-(3,4-methylenedioxybenzyl)piperazine hydrochloride] |  | 19 µM |
| O=S(=O)(NCCN1CCNCC1)c1ccc(Cl)c2ncccc12 [(37), 1-(8-chloro-5-quinolinesulfonylaminoethyl) piperazine] |  | 48 µM |
| O=S(=O)(NCCN1CCN(Cc2ccc3c(c2)OCO3)CC1)c1ccc(Cl)c2ncccc12 [(39), 1-(8-chloro-5-quinolinesulfonylaminoethyl)-4-(3,4-methylenedioxybenzyl)piperazine] |  | 31 µM |
| O=S(=O)(NCCN1CCCN(Cc2ccc(Cl)cc2)CC1)c1ccc(Cl)c2ncccc12 [(40), 1-(8-chloro-5-quinolinesulfonylaminoethyl)-4-(4-chlorobenzyl)homopiperazine] |  | 68 µM |
| O=S(=O)(NCCN1CCN(Cc2ccc(Cl)cc2)CC1)c1ccc(Cl)c2ncccc12 [(41), 1-(8-chloro-5-quinolinesulfonylaminoethyl)-4-(4-chlorobenzyl)piperazine] |  | 78 µM |
| COc1ccc(CCN2CCCN(CCNS(=O)(=O)c3ccc(Cl)c4ncccc34)CC2)cc1OC [(42), 1-(8-chloro-5-quinolinesulfonylaminoethyl)-4-(3,4-dimethoxyphenethyl)homopiperazine] |  | 95 µM |
| COc1ccc(CCN2CCN(CCNS(=O)(=O)c3ccc(Cl)c4ncccc34)CC2)cc1OC [(43), 1-(8-chloro-5-quinolinesulfonylaminoethyl)-4-(3,4-dimethoxyphenethyl)piperazine] |  | 106 µM |
| O=S(=O)(NCCN1CCCNCC1)c1cccc2ncccc12 [(44), 1-(5-quinolinesulfonylaminoethyl)homopiperazine] |  | 91 µM |
| O=S(=O)(NCCN1CCCN(Cc2ccc3c(c2)OCO3)CC1)c1cccc2ncccc12 [(45), 1-(5-quinolinesulfonylaminoethyl)-4-(3,4-methylenedioxybenzyl)homopiperazine] |  | 84 µM |
| CCOc1ccc(S(=O)(=O)NCCN2CCNCC2)c2cccnc12 [(47), 1-(8-ethoxy-5-quinolinesulfonylaminoethyl) piperazine] |  | 60 µM |
| CCOc1ccc(S(=O)(=O)NCCN2CCN(Cc3ccc4c(c3)OCO4)CC2)c2cccnc12 [(49), 1-(8-ethoxy-5-quinolinesulfonylaminoethyl)-4-(3,4-methylenedioxybenzyl)piperazine] |  | 46 µM |
| CCOc1ccc(S(=O)(=O)NCCN2CCCN(Cc3ccc(Cl)cc3)CC2)c2cccnc12 [(50), 1-(8-ethoxy-5-quinolinesulfonylaminoethyl)-4-(4-chlorobenzyl)homopiperazine] |  | 81 µM |
| CCOc1ccc(S(=O)(=O)NCCN2CCN(Cc3ccc(Cl)cc3)CC2)c2cccnc12 [(51), 1-(8-ethoxy-5-quinolinesulfonylaminoethyl)-4-(4-chlorobenzyl)piperazine] |  | 85 µM |
| CCOc1ccc(S(=O)(=O)NCCN2CCCN(CCc3ccc(OC)c(OC)c3)CC2)c2cccnc12 [(52), 1-(8-ethoxy-5-quinolinesulfonylaminoethyl)-4-(3,4-dioxyphenethyl)homopiperazine] |  | 102 µM |
